# According to ChEMBL document CHEMBL3425503, “Synthesis and studies on the mGluR agonist activity of FAP4 stereoisomers” (Bioorg Med Chem Lett, 2015):
# Activity calls are given as the source filed them. The calls are words filed in the database; no cut-off is given here.
# Columns and labels:
# Assay type in all cases: functional, cell-based
# [1] = biological target: Metabotropic glutamate receptor 4 (Rattus norvegicus, UniProt P31423); assay: Agonist activity at rat mGluR4 expressed in HEK293 cells assessed as induction of inositol phosphate production by HTRF assay
# Chain of Metabotropic glutamate receptor 4 (P31423 whole entry): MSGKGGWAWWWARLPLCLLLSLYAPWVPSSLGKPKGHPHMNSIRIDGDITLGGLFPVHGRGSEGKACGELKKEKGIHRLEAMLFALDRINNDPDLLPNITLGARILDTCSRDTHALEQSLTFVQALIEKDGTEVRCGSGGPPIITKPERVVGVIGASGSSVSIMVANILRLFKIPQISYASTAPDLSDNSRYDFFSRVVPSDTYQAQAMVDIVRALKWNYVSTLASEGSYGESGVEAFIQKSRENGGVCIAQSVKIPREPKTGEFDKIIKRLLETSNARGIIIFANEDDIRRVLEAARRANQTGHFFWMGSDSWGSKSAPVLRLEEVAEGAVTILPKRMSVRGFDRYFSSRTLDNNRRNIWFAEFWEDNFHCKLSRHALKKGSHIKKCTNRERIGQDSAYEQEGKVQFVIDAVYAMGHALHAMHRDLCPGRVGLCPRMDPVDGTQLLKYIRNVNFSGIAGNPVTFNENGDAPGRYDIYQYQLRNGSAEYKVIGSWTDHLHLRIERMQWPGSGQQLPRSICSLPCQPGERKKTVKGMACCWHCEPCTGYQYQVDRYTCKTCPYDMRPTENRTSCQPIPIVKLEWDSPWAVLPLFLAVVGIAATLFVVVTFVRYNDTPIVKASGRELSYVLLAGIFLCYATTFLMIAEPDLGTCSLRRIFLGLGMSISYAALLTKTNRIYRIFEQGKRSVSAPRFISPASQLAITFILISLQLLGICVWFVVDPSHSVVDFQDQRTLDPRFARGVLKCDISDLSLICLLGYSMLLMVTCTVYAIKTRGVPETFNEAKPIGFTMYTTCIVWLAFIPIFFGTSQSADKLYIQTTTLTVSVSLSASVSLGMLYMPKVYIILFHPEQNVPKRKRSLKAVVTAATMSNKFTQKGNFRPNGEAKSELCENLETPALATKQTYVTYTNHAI
# [2] = biological target: Metabotropic glutamate receptor 7 (Rattus norvegicus, UniProt P35400); assay: Agonist activity at rat mGluR7 expressed in HEK293 cells assessed as induction of inositol phosphate production by HTRF assay
# Chain of Metabotropic glutamate receptor 7 (P35400 whole entry): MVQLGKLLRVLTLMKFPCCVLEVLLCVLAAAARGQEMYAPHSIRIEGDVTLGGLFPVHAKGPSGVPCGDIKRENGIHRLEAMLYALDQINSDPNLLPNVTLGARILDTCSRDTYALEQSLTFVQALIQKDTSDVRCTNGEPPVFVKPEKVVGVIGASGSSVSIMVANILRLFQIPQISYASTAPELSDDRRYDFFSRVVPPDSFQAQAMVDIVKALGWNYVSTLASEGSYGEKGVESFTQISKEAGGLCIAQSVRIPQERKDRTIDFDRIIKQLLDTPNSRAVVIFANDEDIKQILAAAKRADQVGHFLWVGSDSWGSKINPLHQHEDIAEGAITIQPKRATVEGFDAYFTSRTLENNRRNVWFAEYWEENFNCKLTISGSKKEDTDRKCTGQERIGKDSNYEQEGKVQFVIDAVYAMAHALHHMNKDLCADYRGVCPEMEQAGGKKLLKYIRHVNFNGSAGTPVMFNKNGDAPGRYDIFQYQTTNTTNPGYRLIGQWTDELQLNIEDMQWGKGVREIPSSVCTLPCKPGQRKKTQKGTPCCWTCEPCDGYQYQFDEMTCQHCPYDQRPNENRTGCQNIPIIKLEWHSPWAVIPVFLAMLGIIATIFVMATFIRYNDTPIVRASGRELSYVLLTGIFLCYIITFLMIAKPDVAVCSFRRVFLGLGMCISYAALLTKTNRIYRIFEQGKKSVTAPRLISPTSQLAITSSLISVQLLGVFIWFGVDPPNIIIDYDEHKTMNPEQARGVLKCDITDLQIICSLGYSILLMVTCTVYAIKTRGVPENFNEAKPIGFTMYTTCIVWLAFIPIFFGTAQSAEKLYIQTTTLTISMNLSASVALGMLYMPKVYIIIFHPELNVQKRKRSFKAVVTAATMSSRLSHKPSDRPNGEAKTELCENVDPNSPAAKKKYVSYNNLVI
# [3] = biological target: Metabotropic glutamate receptor 8 (Rattus norvegicus, UniProt P70579); assay: Agonist activity at rat mGluR8 expressed in HEK293 cells assessed as induction of inositol phosphate production by HTRF assay
# Chain of Metabotropic glutamate receptor 8 (P70579 whole entry): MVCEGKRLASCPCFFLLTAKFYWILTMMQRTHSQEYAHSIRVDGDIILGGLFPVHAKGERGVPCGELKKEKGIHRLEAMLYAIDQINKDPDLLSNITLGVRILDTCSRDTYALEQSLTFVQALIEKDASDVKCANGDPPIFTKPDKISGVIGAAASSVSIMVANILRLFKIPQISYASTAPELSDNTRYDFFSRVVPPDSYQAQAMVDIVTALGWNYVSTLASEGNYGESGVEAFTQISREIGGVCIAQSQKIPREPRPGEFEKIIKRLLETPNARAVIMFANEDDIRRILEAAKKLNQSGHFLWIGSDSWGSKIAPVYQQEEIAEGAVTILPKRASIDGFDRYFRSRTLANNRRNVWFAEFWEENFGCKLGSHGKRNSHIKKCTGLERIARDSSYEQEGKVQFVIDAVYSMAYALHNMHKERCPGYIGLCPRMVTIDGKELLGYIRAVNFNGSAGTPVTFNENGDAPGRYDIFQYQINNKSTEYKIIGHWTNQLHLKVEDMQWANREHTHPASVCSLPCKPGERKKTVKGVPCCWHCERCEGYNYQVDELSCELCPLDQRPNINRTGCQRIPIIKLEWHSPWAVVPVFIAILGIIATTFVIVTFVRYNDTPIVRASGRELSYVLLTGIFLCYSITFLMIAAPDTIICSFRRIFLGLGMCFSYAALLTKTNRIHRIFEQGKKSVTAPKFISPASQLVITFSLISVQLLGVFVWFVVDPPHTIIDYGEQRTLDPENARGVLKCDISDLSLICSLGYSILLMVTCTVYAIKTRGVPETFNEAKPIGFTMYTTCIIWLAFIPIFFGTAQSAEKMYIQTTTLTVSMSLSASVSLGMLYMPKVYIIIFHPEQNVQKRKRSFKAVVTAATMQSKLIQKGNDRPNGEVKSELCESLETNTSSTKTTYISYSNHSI
# [4] = biological target: Metabotropic glutamate receptor 6 (Rattus norvegicus, UniProt P35349); assay: Agonist activity at rat mGluR6 expressed in HEK293 cells assessed as induction of inositol phosphate production by HTRF assay
# Chain of Metabotropic glutamate receptor 6 (P35349 whole entry): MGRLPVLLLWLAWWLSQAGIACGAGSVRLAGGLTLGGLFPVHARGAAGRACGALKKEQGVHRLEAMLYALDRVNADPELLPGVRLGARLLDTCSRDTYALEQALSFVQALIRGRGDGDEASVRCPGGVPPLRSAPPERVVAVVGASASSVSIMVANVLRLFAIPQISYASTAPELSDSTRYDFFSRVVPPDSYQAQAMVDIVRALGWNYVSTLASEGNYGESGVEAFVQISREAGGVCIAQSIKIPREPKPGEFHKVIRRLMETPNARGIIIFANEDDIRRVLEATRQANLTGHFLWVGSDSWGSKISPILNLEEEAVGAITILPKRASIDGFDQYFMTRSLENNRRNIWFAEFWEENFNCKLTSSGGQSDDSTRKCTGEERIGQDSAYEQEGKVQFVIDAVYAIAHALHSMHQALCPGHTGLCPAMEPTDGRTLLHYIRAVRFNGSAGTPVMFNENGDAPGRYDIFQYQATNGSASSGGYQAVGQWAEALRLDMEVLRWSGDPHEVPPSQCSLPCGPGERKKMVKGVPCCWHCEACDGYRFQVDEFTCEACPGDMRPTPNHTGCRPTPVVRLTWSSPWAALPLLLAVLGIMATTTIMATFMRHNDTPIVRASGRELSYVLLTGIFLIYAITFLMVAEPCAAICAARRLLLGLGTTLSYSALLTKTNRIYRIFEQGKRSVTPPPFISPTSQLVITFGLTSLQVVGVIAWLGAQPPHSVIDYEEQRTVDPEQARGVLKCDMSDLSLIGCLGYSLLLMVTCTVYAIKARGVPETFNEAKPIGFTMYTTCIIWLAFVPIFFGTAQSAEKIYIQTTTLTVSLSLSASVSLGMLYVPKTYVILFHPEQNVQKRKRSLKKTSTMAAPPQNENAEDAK
# [5] = biological target: Metabotropic glutamate receptor 2 (Rattus norvegicus, UniProt P31421); assay: Agonist activity at rat mGluR2 expressed in HEK293 cells assessed as induction of inositol phosphate production by HTRF assay
# [6] = biological target: Metabotropic glutamate receptor 1 (Rattus norvegicus) (UniProt P23385); assay: Agonist activity at rat mGluR1 expressed in HEK293 cells assessed as induction of inositol phosphate production at 100 uM by HTRF assay
# [7] = biological target: Metabotropic glutamate receptor 5 (Rattus norvegicus) (UniProt P31424); assay: Agonist activity at rat mGluR5 expressed in HEK293 cells assessed as induction of inositol phosphate production at 100 uM by HTRF assay
# Chain of Metabotropic glutamate receptor 5 (Rattus norvegicus) (P31424 21-1203 limits assumed): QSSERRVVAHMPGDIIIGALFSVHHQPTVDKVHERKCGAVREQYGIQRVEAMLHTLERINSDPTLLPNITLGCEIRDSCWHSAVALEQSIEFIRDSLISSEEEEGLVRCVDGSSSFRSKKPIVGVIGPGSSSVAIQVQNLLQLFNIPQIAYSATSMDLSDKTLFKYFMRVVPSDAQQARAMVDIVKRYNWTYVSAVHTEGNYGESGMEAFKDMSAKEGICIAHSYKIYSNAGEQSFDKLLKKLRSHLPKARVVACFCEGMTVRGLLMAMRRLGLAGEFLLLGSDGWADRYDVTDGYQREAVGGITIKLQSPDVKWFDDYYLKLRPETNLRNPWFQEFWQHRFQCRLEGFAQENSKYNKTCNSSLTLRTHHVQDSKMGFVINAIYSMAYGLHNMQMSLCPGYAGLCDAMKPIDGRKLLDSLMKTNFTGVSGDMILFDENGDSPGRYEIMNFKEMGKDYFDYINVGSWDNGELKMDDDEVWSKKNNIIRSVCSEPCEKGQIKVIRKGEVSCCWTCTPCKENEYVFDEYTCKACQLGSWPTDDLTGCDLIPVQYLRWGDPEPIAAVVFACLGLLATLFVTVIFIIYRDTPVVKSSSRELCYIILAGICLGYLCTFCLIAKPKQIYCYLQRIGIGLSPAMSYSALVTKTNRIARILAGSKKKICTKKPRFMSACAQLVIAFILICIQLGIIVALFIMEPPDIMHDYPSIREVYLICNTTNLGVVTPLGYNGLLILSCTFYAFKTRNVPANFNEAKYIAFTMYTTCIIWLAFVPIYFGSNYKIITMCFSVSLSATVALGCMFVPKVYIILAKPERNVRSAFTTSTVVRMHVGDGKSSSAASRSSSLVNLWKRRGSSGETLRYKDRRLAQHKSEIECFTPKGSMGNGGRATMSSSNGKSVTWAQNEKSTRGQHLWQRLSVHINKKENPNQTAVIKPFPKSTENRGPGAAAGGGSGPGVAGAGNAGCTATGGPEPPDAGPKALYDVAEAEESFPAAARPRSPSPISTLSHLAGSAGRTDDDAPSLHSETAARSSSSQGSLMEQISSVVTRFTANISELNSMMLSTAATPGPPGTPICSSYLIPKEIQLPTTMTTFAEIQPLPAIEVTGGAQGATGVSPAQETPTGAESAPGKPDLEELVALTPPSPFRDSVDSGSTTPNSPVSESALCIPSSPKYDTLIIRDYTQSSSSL
Compound,EC50 [1] [µM],EC50 [2] [µM],EC50 [3] [µM],EC50 [4] [µM],further results
N[C@@]1(C(=O)O)C[C@H]1CP(=O)(O)O,0.03,–,–,–,–
N[C@@H](CCP(=O)(O)O)C(=O)O,0.03,426,0.11,3.45,–
NC1(C(=O)O)CC1(F)CP(=O)(O)O (racemic; form 1) [listing 1 of 2 here],0.3,> 100,1.25,6.01,EC50 [5]: > 100 µM
NC1(C(=O)O)CC1(F)CP(=O)(O)O (racemic; form 1) [listing 2 of 2 here],–,–,–,–,Activity [6]: inactive; Activity [7]: inactive
NC1(C(=O)O)CC1(F)CP(=O)(O)O (racemic; form 2),0.1,–,–,–,–
"NC1(C(=O)O)CC1(F)CP(=O)(O)O (single isomer, unassigned; form 1)",0.12,–,–,–,–
"NC1(C(=O)O)CC1(F)CP(=O)(O)O (single isomer, unassigned; form 2)",0.1,–,–,–,–
NC1(C(=O)O)CC1(F)CP(=O)(O)O (stereo in doubt; form 1),11.4,–,–,–,–
NC1(C(=O)O)CC1(F)CP(=O)(O)O (stereo in doubt; form 2),135,–,–,–,–
N[C@@H](CCC(=O)O)C(=O)O [GLUTAMIC ACID],12.6,> 100,21.5,82.2,–
